Laboratory results taken from ChEMBL document CHEMBL4831526, “Cytotoxic Guaianolide Sesquiterpenoids from Ainsliaea fragrans” (J Nat Prod, 2021).

Legend:
Format in all cases: functional, cell-based
HeLa = test: Cytotoxicity against human HeLa cells assessed as reduction in cell viability incubated for 72 hrs by Celltiter-Glo assay
C6 = test: Cytotoxicity against rat C6 cells assessed as reduction in cell viability incubated for 72 hrs by Celltiter-Glo assay; conditions: C6, 72 h
Huh-7 = test: Cytotoxicity against human Huh-7 cells assessed as reduction in cell viability incubated for 72 hrs by Celltiter-Glo assay; conditions: Huh-7, 72 h
PANC-1 = test: Cytotoxicity against human PANC-1 cells assessed as reduction in cell viability incubated for 72 hrs by Celltiter-Glo assay; conditions: PANC-1, 72 h
[1] = Cytotoxicity against human HCCLM3 cells assessed as reduction in cell viability incubated for 72 hrs by Celltiter-Glo assay; conditions: HCCLM3, 72 h

## C=C1C(=O)C2=C3[C@H]1[C@H]1OC(=O)C(=C)[C@@H]1CC[C@]3(O)CC[C@]21C(=O)C[C@H]2C(=C)CC[C@H]3C(=C)C(=O)O[C@@H]3[C@H]21
HeLa
  IC50: 2.8 µM
C6
  IC50: 1.2 µM
Huh-7
  IC50: 2.5 µM
PANC-1
  IC50: 2.2 µM
[1]
  IC50: > 10 µM

## C=C1C(=O)C2=C3[C@H]1[C@H]1OC(=O)C(CO)=C1CC[C@]3(O)CC[C@]21C(=O)C[C@H]2C(=C)CC[C@H]3C(=C)C(=O)O[C@@H]3[C@H]21
HeLa
  IC50: > 10 µM
C6
  IC50: 9.9 µM
Huh-7
  IC50: > 10 µM
PANC-1
  IC50: > 10 µM
[1]
  IC50: > 10 µM

## C=C1C(=O)C2=C3[C@H](CC[C@H]4C(=C)C(=O)O[C@@H]4[C@@H]13)CC[C@]21C(=O)C[C@H]2C(=C)CC[C@H]3C(=C)C(=O)O[C@@H]3[C@H]21
HeLa
  IC50: > 10 µM
C6
  IC50: > 10 µM
Huh-7
  IC50: > 10 µM
PANC-1
  IC50: > 10 µM
[1]
  IC50: > 10 µM

## C=C1C(=O)O[C@@H]2[C@@H]3[C@@H](C[C@@]4(O)[C@]3(O)CC[C@]43C(=O)C[C@H]4C(=C)CC[C@H]5C(=C)C(=O)O[C@@H]5[C@H]43)C(=C)CC[C@@H]12
HeLa
  IC50: 5.3 µM
C6
  IC50: 4.3 µM
Huh-7
  IC50: 4.4 µM
PANC-1
  IC50: 9.9 µM
[1]
  IC50: > 10 µM

## C=C1C(=O)O[C@@H]2[C@@H]3C4=C(C(=O)[C@H]3CO)[C@]3(CC[C@]4(O)CC[C@@H]12)C(=O)C[C@H]1C(=C)CC[C@H]2C(=C)C(=O)O[C@@H]2[C@H]13
HeLa
  IC50: > 10 µM
C6
  IC50: > 10 µM
Huh-7
  IC50: > 10 µM
PANC-1
  IC50: > 10 µM
[1]
  IC50: > 10 µM

## C=C1C(=O)C2=C3[C@H]1[C@H]1OC(=O)C(=C)[C@@H]1CC[C@]3(O)CC[C@]21C(=O)[C@H](C[C@@H]2C(=O)C[C@H]3C(=C)CC[C@H]4C(=C)C(=O)O[C@@H]4[C@@H]23)[C@H]2C(=C)CC[C@H]3C(=C)C(=O)O[C@@H]3[C@H]21
HeLa
  IC50: 1.3 µM
C6
  IC50: 0.7 µM
Huh-7
  IC50: 2.5 µM
PANC-1
  IC50: 0.4 µM
[1]
  IC50: 8.3 µM

## C=C1C(=O)O[C@@H]2[C@@H]3C4=C(C(=O)[C@H]3C)[C@]3(CC[C@@]4(O)CC[C@@H]12)C(=O)C[C@H]1C(=C)CC[C@@H]2[C@H](OC(=O)[C@H]2C)[C@H]13
HeLa
  IC50: 6.5 µM
C6
  IC50: 3.1 µM
Huh-7
  IC50: 4.1 µM
PANC-1
  IC50: 4.9 µM
[1]
  IC50: > 10 µM

## C=C1C(=O)C2=C3[C@@H](CC[C@H]4C(=C)C(=O)O[C@@H]4[C@@H]13)CC[C@]21C(=O)C[C@H]2C(=C)CC[C@H]3C(=C)C(=O)O[C@@H]3[C@H]21
HeLa
  IC50: > 10 µM
C6
  IC50: 6.4 µM
Huh-7
  IC50: > 10 µM
PANC-1
  IC50: > 10 µM
[1]
  IC50: > 10 µM

## C=C1C(=O)C2=C3[C@H]1[C@H]1OC(=O)C(=C)[C@@H]1CC[C@@]3(O)CC[C@]21C(=O)C[C@H]2C(=C)CC[C@H]3C(=C)C(=O)O[C@@H]3[C@H]21
HeLa
  IC50: > 10 µM
C6
  IC50: > 10 µM
Huh-7
  IC50: > 10 µM
PANC-1
  IC50: 5.4 µM
[1]
  IC50: > 10 µM

## C=C1C(=O)C2=C3[C@H](CC[C@H]4C(=C)C(=O)O[C@@H]4[C@@H]13)CC[C@@]21C(=O)C2=C3[C@H]1[C@H]1OC(=O)C(=C)[C@@H]1CC[C@@]3(O)CC[C@]21C(=O)C[C@H]2C(=C)CC[C@H]3C(=C)C(=O)O[C@@H]3[C@H]21
HeLa
  IC50: 7 µM
C6
  IC50: 2.1 µM
Huh-7
  IC50: 7.5 µM
PANC-1
  IC50: 2.5 µM
[1]
  IC50: > 10 µM
